# Experimental data: patent US20050059639A1, “Ophthalmic compositions and method for treating eye discomfort and pain” (priority 2003, published 2005)
# Marks after values point to notes of the source that are not given here.
# What was measured:
# [1] = system: tongue of human volunteers; assay: Cooling sensations when applied to the tongue of human volunteers; assay type: in vivo; conditions: for Duration of Action: duration of the cooling action on the tongue; for Relative Potency: reciprocal of threshold, normalized to unity for analogs with 1.25 μg/ml; for Threshold: threshold for producing cooling sensations on the tongue of human volunteers
# Protocol: (§1) The therapeutic concentrations of the preferred analogs are in the range of 10 to 80 μg/ml […], but concentrations as low as 0.1 μg/ml may elicit effects in sensitive individuals.
# eye disorders = assay: Estimate of ideal therapeutic eye drop concentration to relieve eye disorders; assay type: in vivo, human; conditions: for Eye Therapy: estimate of ideal therapeutic concentration applied as eye drops to relieve eye disorders
# Protocol: as §1
# The potency of certain specific trialkyl phosphine oxides, e.g. isopropyl, sec-butyl, n-octyl-phosphine oxide, in relieving eye discomfort is exceptionally high, on the order of 0.001%. In such situations, an alternative preferred description of an effective unit dose is 0.01 mg/ml or 10 μg/ml, which is equivalent to 0.001% weight percent.
# [2] = system: medial canthus of the eyelids; assay: Sensory quality of the solution on the medial canthus of the eyelids / eye surface; assay type: in vivo, human; conditions: for Sensory Quality: solution applied on the medial canthus of the eyelids
# Text: [table] In selecting a particular analog, it is desirable to have one that has a long duration of action (several hours) and minimal stinging and burning sensations. These parameters are not predicted by the cooling effect of these substances on the human tongue, but must be determined by experiment. […] Thus, the hexyl analog is the preferred therapeutic of the two. The other particularly preferred analogs that have the desired qualities of long duration of action and absence of stinging and burning effects are identified with an asterisk in Table 1.
# [3] = system: stinging and burning sensations on the eye; assay: Adjuncts to reduce stinging of trialkyl phosphine oxide eye drops; assay type: in vivo, human
# [4] = system: stinging and burning sensations on the eye; assay: as above; assay type: in vivo, human; remark: listed apart in the source
# Protocol: I conclude that hydrocarbon polyols are useful adjuncts for preparing a therapeutic formulation of a trialkyl phosphine oxide eye drop solution.
# (§2) A 0.2% (2.0 mg/ml) disec-butyl-n-heptyl-phosphine oxide eye drop solution was prepared by adding the compound to an isotonic solution of sodium chloride, 0.65% in deionized water, monobasic potassium phosphate/sodium hydroxide buffer, preserved with disodium EDTA and benzalkonium chloride. The liquid was individually aliquoted into a ¼ oz. bottle with a Yorker spout (E.D. Luce Packaging) suitable for droplet delivery. This solution was then applied to the closed eyes of three volunteers, with two to three drops of the solution applied to each eye. The subjects complained of stinging and burning sensations on the eye surface, lasting for about 2 min. A series of six solutions were then prepared in which six different hydrocarbon polyols were added to the parent 0.2% solution. The individual additions were 1.5% sucrose, 1.5% fructose, 1.5% dextrose, 1.5% lactose, 1.5% inositol, or 0.5% carboxymethylcellulose. […] There was some tearing, but no evidence of increased eye redness from the hydrocarbon polyols and subjective complaints of discomfort were minimal.
# [5] = system: closed eyes of volunteers; assay: Eye drops applied to medial canthus of closed eyes, kept closed about 1 min; assay type: in vivo, human; conditions: 0.2% (2.0 mg/ml) solution, 2-3 drops, closed eyes, three volunteers
# Protocol: For trialkyl phosphine oxide eye drop solutions of this invention, I have discovered an indirect method of application as follows. The eye dropper is aimed at the medial canthus (nasal corner) of the eye, the eye is then closed, the dispenser is squeezed to emit the eye drops, and the eye kept closed for about 1 min. This method of application can substantially avoid stinging and burning sensations. Apparently, the adaptation period of about 1 min allows the sensory processes to develop tolerance to the initial stinging and burning stimuli. For example, if a 0.4 mg/ml solution of disec-butyl, n-hexyl-phosphine oxide [synonym, 1-(Di-sec-butyl-phosphinoyl)-hexane] in isotonic-buffered saline is dropped on the open eye, it causes stinging and burning for about 1 min. However, applied onto the corners of the eye, with the eyes closed for 1 min, these stinging and burning sensations are avoided. The medial canthus is preferred to the lateral canthus because the geometry of the orbit permits a longer residence time for the eye drop applied to the medial corner. Drops applied to the lateral canthus are less precisely located and rapidly dribble off the zygoma (cheekbone). A user can be instructed in this indirect method by including the instructions on packaging labels and/or inserts associated with the doses.
# The solution, as in Example 1, was then used by another three subjects with the instruction to apply the droplets to the nasal corner of the eye (medial canthus), without touching the tip of the dispenser to the eyelid surface, to let the solution seep into the eyelids and eye surface but to keep eyes closed for at least one minute. The subjects reported slight sensations of stinging when the eyes were opened, effects that lasted for less than 1 minute, followed by sensations of coolness and comfort lasting at least two hours. The experiment was then repeated, but with a higher concentration of 0.2% of disec-butyl-n-hexyl-phosphine oxide.
# as §2
Molecule,Duration of Action [1] [min],Relative Potency [1],Threshold [1] [µg/mL],Eye Therapy (eye disorders),Sensory Quality [2],other results
CCCCCCCCCP(=O)(CC(C)C)CC(C)C [n-C9H19 / iso-C4H9 / iso-C4H9],15,0.025,50,>250 µg/mL,cool/sting,–
CCCCCCCP(=O)(C(C)C)C(C)CC (stereo not shown) [n-C7H15 / iso-C3H7 / sec-C4H9],18,10,0.1,10* μg/ml,cool only,–
CCCCCP(=O)(CC)CCCCC [n-C5H11 / n-C5H11 / n-C2H5],5,<0.008,>150,>1000 µg/mL,cool/sting,–
O[C@H]1[C@H](O)[C@@H](O)[C@H](O)[C@@H](O)[C@H]1O [inositol],–,–,–,–,–,effect of adjunct on stinging and burning sensations of several trialkyl phosphine oxide solutions ([3]; in vivo): substantially reduced; effect of adjunct on initial stinging sensations ([4]; in vivo): reduce the initial stinging sensations
CCCCCCCP(=O)(CCC(C)C)C(C)C (stereo not shown) [n-C7H15 / iso-C5H11 / iso-C3H7],5,1,1.25,20* μg/ml,cool/oily,–
CCCCCCCCP(=O)(CCCCCC)CCCCCC [n-C8H17 / n-C6H13 / n-C6H13],10,<0.005,>250,>1500 µg/mL,cool/sting,–
OC[C@H]1O[C@@H](O[C@H]2[C@H](O)[C@@H](O)C(O)O[C@@H]2CO)[C@H](O)[C@@H](O)[C@H]1O (stereo partly shown) [lactose],–,–,–,–,–,effect of adjunct on initial stinging sensations ([4]; in vivo): reduce the initial stinging sensations
CCCCCCP(=O)(CCC)C(C)(C)C (stereo not shown) [n-C6H13 / tert-C4H9 / n-C3H7],7.5,0.36,3.5,30* μg/ml,cool only,–
CCCCCCP(=O)(C(C)C)C(C)CC (stereo not shown) [n-C6H13 / iso-C3H7 / sec-C4H0],45,2.5,0.5,15 µg/mL,cool/sting,–
O=C(CO)[C@@H](O)[C@H](O)[C@H](O)CO [fructose],–,–,–,–,–,"effect of adjunct on stinging and burning sensations of several trialkyl phosphine oxide solutions ([3]; 1 to 2% sucrose, other carbohydrates, 0.5% carboxymethylcellulose, sucralose at equivalent sweetening concentrations): substantially reduced; effect of adjunct on initial stinging sensations ([4]; added to 0.2% disec-butyl-n-heptyl-phosphine oxide solution, 1.5% (0.5% for carboxymethylcellulose)): reduce the initial stinging sensations"
carboxymethylcellulose,–,–,–,–,–,effect of adjunct on stinging and burning sensations of several trialkyl phosphine oxide solutions ([3]; in vivo): substantially reduced; effect of adjunct on initial stinging sensations ([4]; in vivo): reduce the initial stinging sensations
"CCCCCCCCP(=O)(C(C)C)C(C)CC (stereo not shown) [n-C8H17 / iso-C3H7 / sec-C4H9, isopropyl, sec-butyl, n-octyl-phosphine oxide]",18,10,0.1,10* μg/ml,cool only,"potency in relieving eye discomfort (eye disorders; weight percent, equivalent to 10 μg/ml): ~0.001%"
"CCCCCCCP(=O)(C(C)CC)C(C)CC (stereo not shown) [n-C7H15 / sec-C4H9 / sec-C4H9, disec-butyl-n-heptyl-phosphine oxide]",10,0.8,1.5,15 µg/mL,cool/sting,potency on the human tongue (comparison of the two analogs) ([1]; hexyl vs heptyl analog): about equipotent; duration of stinging and burning sensations on the eye surface [5]: about 2 min; activity in producing stinging and burning sensations relative to hexyl analog ([2]; eye surface): three times more active; duration of action on the eye surface relative to hexyl analog ([2]; eye surface): half the duration of action
CCCCCCP(=O)(CC)CCCCCC [n-C6H13 / n-C6H13 / n-C2H5],5,0.06,20,>150 µg/mL,cool/sting,–
CCCCCCCP(=O)(CCCCCCC)C(C)(C)C [n-C7H15 / n-C7H15 / tert-C4H9],10,0.06,20,>150 µg/mL,cool/sting,–
"CCC(C)P(=O)(CCC(C)C)CCC(C)C (stereo not shown) [iso-C5H11 / iso-C5H11 / sec-C4H9, di-isopentyl-sec-butyl phosphine oxide]",5,0.06,20,>150 µg/mL,cool/sting,–
"OC[C@H]1O[C@H](O[C@]2(CCl)O[C@H](CCl)[C@@H](O)[C@@H]2O)[C@H](O)[C@@H](O)[C@H]1Cl [sucralose, reference compound]",–,–,–,–,–,effect of adjunct on stinging and burning sensations of several trialkyl phosphine oxide solutions ([3]; in vivo): not active
CCCCCCCCP(=O)(C(C)CC)C(C)CC (stereo not shown) [n-C8H17 / sec-C4H9 / sec-C4H9],10,2.5,0.5,30 µg/mL,cool/sting,–
CCCP(=O)(CCC)CCC(C)C [i-C5H11 / n-C3H7 / n-C3H7],5,<0.005,>250,>1500 µg/mL,cool/sting,–
CCCCCCCCCCP(=O)(CCC(C)C)CCC(C)C [n-C10H21 / iso-C5H11 / iso-C5H11],10,<0.005,>250,>1500 µg/mL,cool/sting,–
OC[C@H]1O[C@@](CO)(O[C@H]2O[C@H](CO)[C@@H](O)[C@H](O)[C@H]2O)[C@@H](O)[C@@H]1O [sucrose],–,–,–,–,–,effect of adjunct on stinging and burning sensations of several trialkyl phosphine oxide solutions ([3]; in vivo): substantially reduced; effect of adjunct on initial stinging sensations ([4]; in vivo): reduce the initial stinging sensations
CCCCCCP(=O)(CCCC)C(C)(C)C (stereo not shown) [n-C6H13 / tert-C4H9 / n-C4H9],5,0.8,1.5,25* μg/ml,cool only,–
CCCCCCP(=O)(CCC(C)C)C(C)C (stereo not shown) [n-C6H13 / iso-C5H11 / iso-C3H7],5,1,1.25,25* μg/ml,cool only,–
